{"source": "patent US20060128605A1", "about": "“Preventives/remedies for snore or respiratory disturbances during sleep” (AJINOMOTO CO. INC, priority 2003, published 2006)", "key": {"[1]": {"system": "snoring of the test recipient during sleep", "experiment": "snoring evaluation by a family member after tablets taken before bedtime", "assay_type": "in vivo, human", "settings": "Experiment 1", "method": "(§1) In addition, sleep apnea and arterial blood oxygen saturation (SpO2) were evaluated using a sleep tester LT-200 manufactured by FUKUDA DENSHI Co., Ltd. (Japan). […] The test recipient was completely free of regular medication, and had no habit of taking nutritional supplements or nutritional supports. […] The test recipient took an appropriate number (2-4) of the glycine tablets or the control tablets, and interviewed a family member the next morning as to the presence or absence of snoring and the level thereof, without informing the family member of the kind of the tablets and whether they took the tablets.\nThe presence or absence of snoring during sleep was evaluated the next morning by a family member into three levels of minus (−; snoring was not heard or like sleep breath), plus (+; medium level snoring), two plus (++; extremely noisy and severe snoring). The presence or absence of snoring when the glycine tablets and control tablets were taken before bedtime, and nothing was taken before bedtime was counted."}, "[2]": {"system": "sleep apnea and SpO2 decrease during sleep", "settings": "Experiment 3, glycine tablets (4 tablets) before bedtime", "method": "as §1\nThe arterial blood oxygen saturation (SpO2) and air flow in the mouth-nose during sleep were measured using a sleep tester LT-200 manufactured by FUKUDA DENSHI Co., Ltd. The arterial blood oxygen saturation (SpO2) was measured using a sensor attached to the tip of the second finger of the left hand, and a decrease in the arterial blood oxygen saturation (SpO2) to not more than 93% which lasted for not less than 10 seconds was taken as SpO2 decrease. The number of SpO2 decrease per one day and per one hour and the minimum SpO2 of one day were determined. The air flow in the mouth-nose part was measured by a thermocapsule method, and a decrease in the flow in the mouth-nose part to not more than 50% which lasted for not less than 10 sec was defined as hypopnea. The occurrence of SpO2 decrease along with hypopnea was counted as apnea and the number of apnea per one day and per one hour was determined. Simultaneously, tracheal sounds during sleep were picked up through a mike set near laryngeal prominence.\nThe sleep apnea suppressing effect of glycine was evaluated. […] Tracheal sounds during sleep, which is considered to reflect the snoring sound, were simultaneously recorded."}, "[3]": {"system": "male adults having sleep apnea syndrome", "settings": "glycine 3 g 1 hour before sleep", "method": "For confirmation of the effect of glycine on respiratory disorders during sleep, a double blind crossover test was performed with 10 male adults having sleep apnea syndrome as evidenced by more than 5 of the following AHI (apnea hypopnea index per 1 hour). Glycine (3 g) was administered 1 hour before sleep and, as the placebo, maltose adjusted to an indistinguishable taste was used.\nSleep polygraph data such as electroencephalogram, electromyogram, arterial blood oxygen saturation, and the like during sleep were measured using the Alice system manufactured by Respironics Co., Ltd. (USA). The air flow of the mouth-nose part was measured, and hypopnea was defined to mean a state where a decrease to not more than 50% requires not less than 10 second to recover to not less than 60%. Furthermore, a decrease in the arterial blood oxygen saturation by not less than 3% associated with hypopnea was taken as apnea. The total of the incidents of apnea and hypopnea per 1 hour was taken as an apnea hypopnea index (AHI) and used as a severity index of respiratory disorder during sleep."}, "[4]": {"system": "sleep apnea syndrome", "settings": "animal experiments using rats; cited from earlier work"}, "[5]": {"settings": "2 glycine tablets (glycine 490 mg) before bedtime, 9 days of observation"}, "[6]": {"settings": "4 glycine tablets (glycine 980 mg) before bedtime, 8 days of observation"}, "[7]": {"settings": "SpO2 not more than 93% for not less than 10 seconds"}}, "data": [{"smiles": "NCC(=O)O", "note": "[glycine]", "values": [{"measurement": "snoring evaluation results ++, number of days (severe snoring)", "setting": "[1]; [5]", "result": 2, "unit": "days"}, {"measurement": "snoring evaluation results ++, percentage of total observation days", "setting": "[1]; [5]", "result": "(22%)"}, {"measurement": "snoring evaluation results +, number of days (medium level snoring)", "setting": "[1]; [5]", "result": 3, "unit": "days"}, {"measurement": "snoring evaluation results +, percentage of total observation days", "setting": "[1]; [5]", "result": "(33%)"}, {"measurement": "snoring evaluation results −, number of days (snoring not heard or like sleep breath)", "setting": "[1]; [5]", "result": 4, "unit": "days"}, {"measurement": "snoring evaluation results −, percentage of total observation days", "setting": "[1]; [5]", "result": "(44%)"}, {"measurement": "snoring evaluation results ++, number of days (severe snoring)", "setting": "[1]; [6]", "result": 0, "unit": "days"}, {"measurement": "snoring evaluation results ++, percentage of total observation days", "setting": "[1]; [6]", "result": "(0% a))"}, {"measurement": "snoring evaluation results +, number of days (medium level snoring)", "setting": "[1]; [6]", "result": 2, "unit": "days"}, {"measurement": "snoring evaluation results +, percentage of total observation days", "setting": "[1]; [6]", "result": "(25%)"}, {"measurement": "snoring evaluation results −, number of days (snoring not heard or like sleep breath)", "setting": "[1]; [6]", "result": 6, "unit": "days"}, {"measurement": "snoring evaluation results −, percentage of total observation days", "setting": "[1]; [6]", "result": "(75%)"}, {"measurement": "SpO2 lowest value during sleep", "setting": "[2]", "result": "88 ± 1", "unit": "%"}, {"measurement": "apnea (times/day)", "setting": "[2]", "result": "11 ± 4", "unit": "times/day"}, {"measurement": "apnea (times/hr)", "setting": "[2]", "result": "1.9 ± 0.9", "unit": "times/hr"}, {"measurement": "SpO2 decrease (times/day)", "setting": "[2]; [7]", "result": "14 ± 5", "unit": "times/day"}, {"measurement": "SpO2 decrease (times/hr)", "setting": "[2]; [7]", "result": "2.5 ± 1.2", "unit": "times/hr"}, {"measurement": "average value of AHI, test recipients of 40 years old or over with BMI exceeding 28", "setting": "[3]; 4 cases, placebo 18.9 (p=0.046)", "result": 10.6}, {"measurement": "average value of AHI, test recipients of 40 years old or over", "setting": "[3]; 6 cases, entire sleep stage, placebo 17.2 (p=0.062)", "result": 11.5}, {"measurement": "respiratory disorder (hypopnea or apnea, AHI) in the early stage of sleep", "setting": "[3]; early stage of sleep (3 hours), FIG. 4 right graph", "result": "improved"}, {"measurement": "average value of AHI, nonrem sleep stage (NREM)", "setting": "[3]; entire sleep stage, 10 male adults, placebo 11.3", "result": 10.8}, {"measurement": "average value of AHI, entire period (Total) of rem and nonrem sleep stage", "setting": "[3]; entire sleep stage, 10 male adults, placebo 15.0", "result": 13.4}, {"measurement": "average value of AHI, rem sleep stage (REM)", "setting": "[3]; entire sleep stage, 10 male adults, placebo 33.5", "result": 26.8}]}, {"smiles": "Nc1nc2ccc(OC(F)(F)F)cc2s1", "note": "[riluzole]", "values": [{"measurement": "effectiveness for the treatment of sleep apnea syndrome", "setting": "[4]", "result": "has been confirmed"}]}]}
